Tests used:
Test in all cases: relative viability (nuclei count vs DMSO), 5 days (fraction); higher = more cells survive
AZ505 + Alpelisib = compound: C1CCC(CC1)N(CCNCCC2=C3C(=C(C=C2)O)NC(=O)CO3)C(=O)CCNCCC4=CC(=C(C=C4)Cl)Cl [AZ505] + Cc1nc(NC(=O)N2CCC[C@H]2C(N)=O)sc1-c1ccnc(C(C)(C)C(F)(F)F)c1 [Alpelisib] (partner 2 µM)
How it was run: (§1)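 Lung cancer cell lines in 1536-well plates got either a single drug or a fixed anchor-drug dose together with five library-drug doses (not always all listed) in √10 steps, by pin tool, on the day after seeding. Nuclei were counted after 5 days, and relative viability is the treated-to-vehicle ratio of nuclei counts. Values are medians of duplicate plates.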

Dactolisib + Palbociclib = compound: Cn1c(=O)n(-c2ccc(C(C)(C)C#N)cc2)c2c3cc(-c4cnc5ccccc5c4)ccc3ncc21 [Dactolisib] + CC(=O)c1c(C)c2cnc(Nc3ccc(N4CCNCC4)cn3)nc2n(C2CCCC2)c1=O [Palbociclib] (partner 0.5 µM)
How it was run: as §1

Dactolisib + Bortezomib = compound: Cn1c(=O)n(-c2ccc(C(C)(C)C#N)cc2)c2c3cc(-c4cnc5ccccc5c4)ccc3ncc21 [Dactolisib] + CC(C)C[C@H](NC(=O)[C@H](Cc1ccccc1)NC(=O)c1cnccn1)B(O)O [Bortezomib] (partner 0.002 µM)
How it was run: as §1

Dactolisib + AZD7762 = compound: Cn1c(=O)n(-c2ccc(C(C)(C)C#N)cc2)c2c3cc(-c4cnc5ccccc5c4)ccc3ncc21 [Dactolisib] + NC(=O)Nc1cc(-c2cccc(F)c2)sc1C(=O)N[C@H]1CCCNC1 [AZD7762] (partner 0.2 µM)
How it was run: as §1

| Cell Line | relative viability (AZ505 + Alpelisib; first compound 0.08 µM) | relative viability (AZ505 + Alpelisib; first compound 0.253 µM) | relative viability (AZ505 + Alpelisib; first compound 0.8 µM) | relative viability (AZ505 + Alpelisib; first compound 2.53 µM) | relative viability (AZ505 + Alpelisib; first compound 8 µM) | relative viability (Dactolisib + Palbociclib; first compound 0.002 µM) | relative viability (Dactolisib + Palbociclib; first compound 0.006325 µM) | relative viability (Dactolisib + Palbociclib; first compound 0.02 µM) | relative viability (Dactolisib + Palbociclib; first compound 0.06325 µM) | relative viability (Dactolisib + Palbociclib; first compound 0.2 µM) | relative viability (Dactolisib + Bortezomib; first compound 0.002 µM) | relative viability (Dactolisib + Bortezomib; first compound 0.006325 µM) | relative viability (Dactolisib + Bortezomib; first compound 0.02 µM) | relative viability (Dactolisib + Bortezomib; first compound 0.06325 µM) | relative viability (Dactolisib + Bortezomib; first compound 0.2 µM) | relative viability (Dactolisib + AZD7762; first compound 0.002 µM) | relative viability (Dactolisib + AZD7762; first compound 0.006325 µM) | relative viability (Dactolisib + AZD7762; first compound 0.02 µM) | relative viability (Dactolisib + AZD7762; first compound 0.06325 µM) | relative viability (Dactolisib + AZD7762; first compound 0.2 µM) |
| --- | --- | --- | --- | --- | --- | --- | --- | --- | --- | --- | --- | --- | --- | --- | --- | --- | --- | --- | --- | --- |
| BEN | 0.947 | 1.01 | 0.959 | 1.02 | 1.2 | 0.479 | 0.477 | 0.473 | 0.458 | 0.426 | 0.766 | 0.795 | 0.809 | 0.598 | 0.289 | 0.781 | 0.645 | 0.547 | 0.588 | 0.41 |
| NCI-H2170 | 0.804 | 0.914 | 0.719 | 0.846 | 0.918 | 0.379 | 0.385 | 0.316 | 0.205 | 0.167 |  |  |  |  |  | 0.806 | 0.88 | 0.753 | 0.382 | 0.244 |
| NCI-H1299 | 0.986 | 1.06 | 1.01 | 0.978 | 0.998 |  |  |  |  |  | 1.02 | 1.05 | 1.05 | 0.957 | 0.7 |  |  |  |  |  |
| EBC-1 | 0.815 | 0.806 | 0.893 | 0.857 | 0.66 |  |  |  |  |  | 0.625 | 0.523 | 0.373 | 0.216 | 0.191 |  |  |  |  |  |
| NCI-H1648 |  |  |  |  |  | 0.284 | 0.283 | 0.231 | 0.206 | 0.215 |  |  |  |  |  | 0.934 | 0.762 | 0.629 | 0.603 | 0.555 |
| ChaGo-K-1 |  |  |  |  |  | 0.93 | 0.958 | 0.88 | 0.84 | 0.85 | 0.977 | 1.07 | 0.861 | 1.04 | 0.755 | 0.913 | 0.845 | 0.811 | 0.877 | 0.814 |
| COR-L23 | 0.532 | 0.646 | 0.463 | 0.624 | 0.598 | 0.327 | 0.282 | 0.228 | 0.135 | 0.0957 | 1.21 | 0.803 | 0.765 | 0.327 | 0.149 |  |  |  |  |  |
| COR-L 105 | 0.897 | 1.06 | 1.02 | 0.954 | 0.954 | 0.393 | 0.375 | 0.432 | 0.392 | 0.31 | 0.784 | 0.888 | 0.553 | 0.28 | 0.274 |  |  |  |  |  |
| LK-2 | 0.968 | 0.923 | 1.29 | 1.13 | 1.16 | 0.513 | 0.653 | 0.491 | 0.212 | 0.167 |  |  |  |  |  | 0.273 | 0.447 | 0.305 | 0.12 | 0.0726 |
| NCI-H596 | 0.483 | 0.453 | 0.49 | 0.626 | 0.52 |  |  |  |  |  | 0.939 | 0.989 | 0.908 | 0.769 | 0.357 | 1.21 | 1.03 | 0.946 | 0.774 | 0.396 |
| NCI-H2023 | 0.561 | 0.618 | 0.588 | 0.491 | 0.533 | 0.395 | 0.297 | 0.274 | 0.106 | 0.0901 | 0.673 | 0.805 | 0.655 | 0.171 | 0.123 |  |  |  |  |  |

From the supplement of paper PMC10307832
